{
  "source": "patent US10898463B2",
  "about": "“High-strength oral cannabinoid dosage forms” (ICDPHARMA LTD, priority 2016, dated 2021)",
  "origin": "cited, not measured here",
  "data": [
    {"conditions": "octanol/water", "values": [
      {"molecule": "Terpinene", "LogP": 4.5},
      {"molecule": "CC1=CCC2C(C1)C2(C)C", "note": "(stereo not shown) [Carene]", "LogP": 4.32},
      {"molecule": "CC12CCC(CC1)C(C)(C)O2", "note": "[Cineol]", "LogP": 2.7},
      {"molecule": "C=CC(C)(O)CCC=C(C)C", "note": "(stereo not shown) [Linalool]", "LogP": 2.65},
      {"molecule": "Citronella", "LogP": 3.53},
      {"molecule": "C=CC(C)(O)CCC=C(C)CCC=C(C)C", "note": "(stereo not shown) [Nerolidol]", "LogP": 4.68},
      {"molecule": "C=CC(=C)CCC=C(C)C", "note": "[Myrcene]", "LogP": 4.17},
      {"molecule": "C=C1CC/C=C(\\C)CC[C@@H]2[C@@H]1CC2(C)C", "note": "[Beta-caryophyllene]", "LogP": 4.72},
      {"molecule": "C/C(=C\\CO)CCC[C@H](C)CCC[C@H](C)CCCC(C)C", "note": "[Phytol]", "LogP": 7.04},
      {"molecule": "COC(=O)c1ccccc1O", "note": "[Methyl salicylate]", "LogP": 2.3},
      {"molecule": "CC1=CCC2CC1C2(C)C", "note": "(stereo not shown) [Alfa-pinene]", "LogP": 4.37},
      {"molecule": "CC1=CCC(O)(C(C)C)CC1", "note": "(stereo not shown) [Terpinen-4-ol]", "LogP": 3.26},
      {"molecule": "CC12CCC(CC1=O)C2(C)C", "note": "(stereo not shown) [Camphor]", "LogP": 2.55},
      {"molecule": "CC(C)=C1CC[C@@H](C)CC1=O", "note": "[Pulegone]", "LogP": 3.08},
      {"molecule": "C=CCc1ccc(O)c(OC)c1", "note": "[Eugenol]", "LogP": 2.66},
      {"molecule": "C=C(C)[C@H]1CC=C(C)CC1", "note": "[Limonene]", "LogP": 2.38},
      {"molecule": "C=C1C2CCC(C2)C1(C)C", "note": "(stereo not shown) [Camphene]", "LogP": 4.24},
      {"molecule": "CC(C)=CCC[C@](C)(O)C1CC=C(C)CC1", "note": "(stereo partly shown) [Bisabolol]", "LogP": 5.07},
      {"molecule": "Cc1ccc(C(C)C)c(O)c1", "note": "[Thymol]", "LogP": 3.28}
    ]}
  ]
}
